Source: patent US20020028938A1, “Prostaglandin endoperoxide H synthase biosynthesis inhibitors” (priority 1997, published 2002)

Columns and labels:
[1] = target: T1, Human Whole Platelet Cyclooxygenase-1 (Homo sapiens, UniProt P23219); assay: Human Whole Platelet Cyclooxygenase-1 assay (HWPX); type: cell-based; settings: for IC50: read-out: HWPX IC50 (parenthetical value)
T1 construct: from tissue; host or cells: human blood: isolated platelets (A4) or heparinised whole blood (A9)
Procedure, shortened: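 Washed platelets from healthy-donor ACD blood were pre-incubated with compound for 10 min, then stimulated with calcium ionophore A23187 (8.8 μM final) for 10 min. Reaction stopped with cold 6 mM EDTA; thromboxane in supernatants quantified with a commercial kit.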

[2] = system: prostaglandin biosynthesis in vivo (pleural lavage eicosanoids); assay: Rat carrageenan pleural inflammation (CIP) model; settings: for inhibition in vivo at 10 mg/kg: 4 h, read-out: CIP % Inhib. @ 10 mpk
Experimental: (§1) For oral administration, test compounds were suspended on the day of use in 100% polyethyleneglycol (PEG 400) with a motorized homogenizer equipped with a Teflon-coated pestle (TRI-R Instrument, Jamaica, N.Y.).
(§2) To compare the mean responses of the treatment groups, analysis of variance was applied. Percent inhibition values were determined by comparing the individual treatment mean values to the mean of the control group. Linear regression was used to estimate IC50's/ED50's in appropriate assays.
Pleural inflammation was induced in male adrenalectomized Sprague-Dawley rats following the method of Vinegar et al., Fed. Proc. 1976, 35, 2447-2456. Animals were orally dosed with experimental compounds, 30 minutes prior to the intrapleural injection of 2% lambda carrageenan (Sigma Chemical Co., St. Louis Mo.). Four hours later the animals were euthanized and the pleural cavities lavaged with ice cold saline. The lavage fluid was then added to two volumes of ice cold methanol (final methanol concentration 66%) to lyse cells and precipitate protein. Eicosanoids were determined by EIA as described above.

[3] = target: T2, recombinant human Cox-1 (r-hu Cox1) (Homo sapiens, UniProt P23219); assay: Recombinant human PGHS-1 enzyme assay (RHUCX1); type: biochemical; settings: for inhibition at 100 µM / inhibition at 200 µM: read-out: RHUCX1 % Inh. at Dose; for IC50: read-out: RHUCX1 IC50 (parenthetical value)
T2 construct: made in house; host or cells: baculovirus/Sf9 insect cells (microsomes)
T2 sequence (P23219 24-599): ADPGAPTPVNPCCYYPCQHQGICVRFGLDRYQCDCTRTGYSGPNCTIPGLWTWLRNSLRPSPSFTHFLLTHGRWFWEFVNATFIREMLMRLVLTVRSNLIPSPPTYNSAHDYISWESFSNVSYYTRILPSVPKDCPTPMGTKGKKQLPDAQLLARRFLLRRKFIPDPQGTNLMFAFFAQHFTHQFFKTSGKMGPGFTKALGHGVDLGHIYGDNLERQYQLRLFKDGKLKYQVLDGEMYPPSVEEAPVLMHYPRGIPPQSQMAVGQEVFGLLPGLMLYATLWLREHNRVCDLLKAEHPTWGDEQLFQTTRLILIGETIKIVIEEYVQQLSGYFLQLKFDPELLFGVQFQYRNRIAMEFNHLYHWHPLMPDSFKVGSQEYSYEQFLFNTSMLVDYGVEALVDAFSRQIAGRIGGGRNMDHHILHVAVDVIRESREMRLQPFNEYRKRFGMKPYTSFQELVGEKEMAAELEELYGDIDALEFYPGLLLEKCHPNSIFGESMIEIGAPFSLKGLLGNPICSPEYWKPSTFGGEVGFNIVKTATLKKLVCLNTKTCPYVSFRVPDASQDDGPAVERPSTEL
Procedure, shortened: (§3)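 Prostaglandin biosynthesis was measured as PGE2 output, read by enzyme immunoassay after a 2.5-minute room-temperature reaction stopped with HCl and neutralized with NaOH.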

[4] = target: T3, recombinant human Cox-2 (r-hu Cox-2) (Homo sapiens, UniProt P35354); assay: Recombinant human PGHS-2 enzyme assay (RHUCX2); type: biochemical; settings: for IC50: read-out: RHUCX2 IC50 (parenthetical value)
T3 construct: made in house; host or cells: baculovirus/Sf9 insect cells (microsomes)
T3 sequence (P35354 18-604): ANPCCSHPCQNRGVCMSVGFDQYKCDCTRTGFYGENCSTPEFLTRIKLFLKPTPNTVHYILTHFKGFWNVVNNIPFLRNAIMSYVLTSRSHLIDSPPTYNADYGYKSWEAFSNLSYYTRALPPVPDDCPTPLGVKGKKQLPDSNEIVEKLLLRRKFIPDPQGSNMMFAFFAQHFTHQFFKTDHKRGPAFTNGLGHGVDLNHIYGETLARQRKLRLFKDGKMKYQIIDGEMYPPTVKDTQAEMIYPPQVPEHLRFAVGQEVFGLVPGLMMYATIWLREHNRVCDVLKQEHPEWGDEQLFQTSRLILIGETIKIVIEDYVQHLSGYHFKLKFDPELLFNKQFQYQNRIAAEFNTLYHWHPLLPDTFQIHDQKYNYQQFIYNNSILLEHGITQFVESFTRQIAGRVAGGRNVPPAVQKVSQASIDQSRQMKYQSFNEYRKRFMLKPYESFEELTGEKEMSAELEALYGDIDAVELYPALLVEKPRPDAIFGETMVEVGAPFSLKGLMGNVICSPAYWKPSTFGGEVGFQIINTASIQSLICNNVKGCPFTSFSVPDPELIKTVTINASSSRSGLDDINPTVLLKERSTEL
Procedure, shortened: as §3

[5] = target: T4, human amnionic whole cell cyclooxygenase-2 (WISH cells) (Homo sapiens, UniProt P35354); assay: IL-1β induced PGE2 production in WISH cells; type: cell-based; settings: read-out: Wish IC50 (parenthetical value)
T4 construct: endogenous in cells; host or cells: human amnionic WISH cells, induced with IL-1beta
T4 sequence (P35354 18-604): T3 sequence (P35354 18-604)
Procedure, shortened: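 Confluent (80%) WISH cells were stimulated with 5 ng/ml IL-1β in serum-free Neuman-Tytell medium, with or without test compound in DMSO (0.01% v/v). PGE2 in the culture medium was measured by EIA against standards prepared in the same medium, read by optical density.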

[6] = system: air pouch prostaglandin biosynthesis (Cox-2); assay: Carrageenan induced air pouch prostaglandin biosynthesis model (CAP); type: in vivo, rat; settings: for inhibition in vivo at 3 mg/kg: 4 h, 3 mpk, rat, read-out: CAP % Inhib. @ 3 mpk; for ED50: Rattus norvegicus
Procedure, shortened: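 Male Sprague Dawley rats with dorsal air pouches (20 mL air day 0, 10 mL day 3) received 0.2% lambda carrageenan in saline into the pouch on day 7. Compounds dosed at 0.1 to 10 mg/kg 30 min before carrageenan; pouch lavaged 4 h later, prostaglandins measured by EIA. Percent inhibition versus control mean; ED50 by linear regression.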

[7] = system: carrageenan induced paw edema; assay: Carrageenan induced paw edema (CPE) in rats; type: in vivo; settings: 10 mpk oral, rat, 3 hours after carrageenan; read-out: CPE % Inhib. @ 10 mpk
Experimental: as §1, §2
Hingpaw edema was […] in male rats as described by Winter et al., Proc. Soc. Exp. Biol. Med., 1962, 111, 544. Briefly, male Sprague-Dawley rats weighing between 170 and 190 g were administered test compounds orally 1 hour prior to the subplantar injection of 0.1 ml of 1% sodium carrageenan (lambda carrageenan, Sigma Chemical Co., St Louis, Mo.) into the right hindpaw. Right paw volumes (ml) were measured immediately following injection of carrageenan for baseline volume measurements using a Buxco plethysmograph (Buxco Electronics, Inc., Troy, N.Y.). Three hours after the injection of carrageenan, right paws were remeasured and paw edema calculated for each rat by subtracting the zero time reading from the 3 hour reading. Data are reported as mean percent inhibition +/−SEM. Statistical significance of results was analyzed by Dunnetts multiple comparison test where p<0.05 was considered statistically significant.

[8] = 0.1 μM, read-out: RHUCX2 % Inh. at Dose
[9] = 1 μM, read-out: RHUCX2 % Inh. at Dose

T1 sequence (P23219 24-599): as the sequence (P23219 24-599) above

Row | Compound | IC50 [1] [µM] | inhibition in vivo at 10 mg/kg ([2]; 10 mpk oral) [%] | melting point [°C] | inhibition at 100 µM ([3]; 100 μM) [%] | IC50 [4] [µM] | IC50 [5] [µM] | inhibition in vivo at 3 mg/kg [6] [%] | inhibition in vivo at 10 mg/kg [7] [%] | further results
1 | CS(=O)(=O)c1ccc(-c2cnn(Cc3ccccc3)c(=O)c2-c2ccc(F)cc2)cc1 [Example 10, 2-Benzyl-4-(4-fluorophenyl)-5-[4-(methylsulfonyl)phenyl]-3(2H)-pyridazinone] | 4.1 | 44 | 101 to 103 | 2 | – | – | – | – | –
2 | CS(=O)(=O)c1ccc(-c2cnn(-c3cccc(Br)c3)c(=O)c2-c2ccc(F)cc2)cc1 [Example 166, 2-(3-Bromophenyl)-4-(4-fluorophenyl)-5-[4-(methylsulfonyl)phenyl]-3(2H)-pyridazinone] | 9.4 | 40 | 210 to 212 | 3 | 0.199 | 0.02 | 59 | – | –
3 | CS(=O)(=O)c1ccc(-c2cnn(-c3ccc(F)cc3)c(=O)c2-c2ccc(F)cc2)cc1 [Example 62, 2,4-Bis(4-fluorophenyl)-5-[4-(methylsulfonyl)phenyl]-3(2H)-pyridazinone] | – | 57 | 168 to 169 | 6 | 0.624 | – | – | 21 | –
4 | NS(=O)(=O)c1ccc(-c2cnn(CC(F)(F)F)c(=O)c2-c2ccc(F)cc2)cc1 [Example 68, 2-(2,2,2-Trifluoroethyl)-4-(4-fluorophenyl)-5-[4-(aminosulfonyl)phenyl]-3(2H)-pyridazinone] | – | 64 | 193 to 195 | 32 | 0.297 | – | – | 40.3 | –
5 | CC(C)Oc1c(-c2ccc(S(C)(=O)=O)cc2)cnn(Cc2ccccc2)c1=O [Example 74, 2-Benzyl-4-(2-propoxy)-5-[4-(methylsulfonyl)phenyl]-3(2H)-pyridazinone] | – | 46.5 | 109 to 111 | 11 | – | – | – | 18 | –
6 | CS(=O)(=O)c1ccc(-c2cnn(CC(F)(F)F)c(=O)c2-c2ccc(F)c(Cl)c2)cc1 [Example 54, 2-(2,2,2-Trifluoroethyl)-4-(3-chloro-4-fluorophenyl)-5-[4-(methylsulfonyl)phenyl]-3(2H)-pyridazinone] | – | 31 | 165 to 166 | 0 | – | – | – | 30 | inhibition at 0.1 µM [4, 8]: 58%; inhibition at 1 µM [4, 9]: 95%
7 | CC(C)CCOc1c(-c2ccc(S(N)(=O)=O)cc2)cnn(-c2ccc(F)c(F)c2)c1=O [Example 445, 2-(3,4-Difluorophenyl)-4-(3-methyl-1-butoxy)-5-[4-(aminosulfonyl)phenyl]-3(2H)-pyridazinone] | – | – | 149 to 151 | – | 0.069 | 0.025 | 73 | 15 | inhibition at 10 µM ([1]; 10 μM, read-out: HWPX % Inhib. at Dose): 22%; inhibition at 100 µM ([1]; 100 μM, read-out: HWPX % Inhib. at Dose): 100%; IC50 [3]: 56.6 µM
8 | CC(C)COc1c(-c2ccc(S(N)(=O)=O)cc2)cnn(-c2ccc(F)c(F)c2)c1=O [Example 403, 2-(3,4-Difluorophenyl)-4-(2-methylpropoxy)-5-[4-(aminosulfonyl)phenyl]-3(2H)-pyridazinone] | 0.902 | – | 169 to 171 | – | – | 0.018 | 68.5 | 43 | inhibition at 0.01 µM ([4]; 0.01 μM, read-out: RHUCX2 % Inh. at Dose): 36%; inhibition at 0.1 µM [4, 8]: 64%; inhibition at 1 µM [4, 9]: 92%; ED50 [6]: 0.35 mg/kg; IC50 [3]: 151 µM
9 | CC(C)(C)COc1c(-c2ccc(S(C)(=O)=O)cc2)cnn(CC(F)(F)F)c1=O [Example 261] | 34 | – | 145 to 146 | – | 0.161 | 0.099 | 79 | 28 | inhibition at 200 µM [3]: 0%
10 | CS(=O)(=O)c1ccc(-c2cnn(-c3cc(F)cc(F)c3)c(=O)c2-c2ccc(F)cc2)cc1 [Example 180] | – | – | – | – | – | – | – | – | RHUCX2 % Inh. at Dose (μM) ([4]; 0.1 μM): 48 @ 0.1%; RHUCX2 % Inh. at Dose (μM) ([4]; 1 μM): 78 @ 1%; CIP % Inhib. @ 10 mpk ([2]; 10 mpk oral): 34.5%; RHUCX1 % Inh. at Dose (μM) ([3]; 100 μM): 8 @ 100%
11 | CC(C)COc1c(-c2ccc(S(N)(=O)=O)cc2)cnn(CC(F)(F)F)c1=O [Example 449, 2-(2,2,2-Trifluoroethyl)-4-(2-methylpropoxy)-5-[4-(aminosulfonyl)phenyl]-3(2H)-pyridazinone] | 40 | – | 170 to 172 | – | 0.129 | 0.089 | 76 | 23 | ED50 [6]: 1.8 mg/kg; inhibition at 200 µM [3]: 5%
12 | CS(=O)(=O)c1ccc(-c2cnn(CC(F)(F)F)c(=O)c2-c2ccc(Cl)c(F)c2)cc1 [Example 67] | – | – | – | – | – | – | – | – | CIP % Inhib. ([2]; 3 mpk oral): 40 @ 3 mpk %
13 | CS(=O)(=O)c1ccc(-c2cnn(CC(F)(F)F)c(=O)c2-c2ccc(F)cc2)cc1 [Example 34, 2-(2,2,2-Trifluoroethyl)-4-(4-fluorophenyl)-5-[4-(methylsulfonyl)-phenyl]-3(2H)-pyridazinone] | – | 36 | 177 to 179 | 16 | 0.92 | – | – | 31 | –
14 | CC(C)(O)COc1c(-c2ccc(S(N)(=O)=O)cc2)cnn(-c2ccc(F)cc2)c1=O [Example 478, 2-(4-Fluorophenyl)-4-(2-hydroxy-2-methyl-1-propoxy)-5-[4-(aminosulfonyl)phenyl]-3(2H)-pyridazinone] | 0.5 | – | 155 to 158 | 33 | 0.81 | 0.108 | 75 | 26 | –
15 | CS(=O)(=O)c1ccc(-c2cnn(-c3ccccc3)c(=O)c2-c2ccc(F)cc2)cc1 [Example 12, 2-Phenyl-4-(4-fluorophenyl)-5-[4-(methylsulfonyl)phenyl]-3(2H)-pyridazinone] | – | 42 | 219 to 220 | 0 | – | – | – | 25 | inhibition at 0.1 µM [4, 8]: 9%; inhibition at 1 µM [4, 9]: 77%; inhibition at 10 µM ([4]; 10 μM, read-out: RHUCX2 % Inh. at Dose): 97%
